Data taken from article PMC9952391, “The Role of Acetyl Zingerone and Its Derivatives in Inhibiting UV-Induced, Incident, and Delayed Cyclobutane Pyrimidine Dimers” (Antioxidants, 2023).
Where “and” joins values, the source holds several entries; their conditions need not be identical. Identical values can stand only once.

What was measured:
[1] = system: Xpa, Xpc, Mitf, Xrcc1 expression in Mel-a; test: qPCR expression of NER pathway genes, Mel-a; format: cell-based, mouse; conditions: for NER pathway gene expression post UV exposure: 200 µg/ml, 24 h, then 18 kJ/m2 ssUV, various time points, relative to UV-induced upregulation; for Gene expression of Xpa, Xpc and Mitf (NER pathway) / Gene expression of Xrcc1: 24 h incubation, qPCR; for Gene expression of Xpa, Xpc and Mitf (NER pathway): no UV
Protocol: (§1) Various cell types were collected 24-h post incubation with 200 µg/mL AZ and MBPD, with and without ssUV exposure. RNA was isolated using a Quick-RNA isolation kit (Cat. R1050, Zymo Research). The cDNA was prepared using a High-Capacity cDNA Reverse Transcription Kit (Cat. 4368814, ThermoFisher Scientific). The gene expression of XPA, XPC, and MITF genes was assessed using the following primers. β-actin was used as an internal control for normalizations and data analyses. F1-R1 and F2-R2 represents two primer pairs which were used in the qPCR experiments.

[2] = system: MMP-12; design: method as in PMID 31465741; conditions: in vitro assays; cited from earlier work
[3] = system: nitrotyrosine / nitric oxide synthase (NOS) activity in Mel-a melanocytes; test: Immunofluorescence for nitrotyrosine (marker of NOS activity); format: cell-based, mouse; conditions: 50 µg/mL, 24–36 h
Protocol: Posttranslational modification nitrotyrosine was used as a marker of nitric oxide synthase (NOS) activity. Melanocytes were cultured on collagen-coated, glass-bottom dishes (cat. P35G-1.5-14-C, MatTek, Ashland, MA, USA). After various treatments, cells were fixed with 4% formaldehyde for 10 min at RT, washed with PBS, and permeabilized with 0.5% Triton-X in PBS for 10 min. After blocking for non-specific antibody binding using 5% goat serum (Cat. 16210064, ThermoFisher Scientific) and 1% globulin free BSA (Cat. 001-000-161, Jackson ImmunoResearch, West Grove, PA, USA) in 0.1% Triton-x in PBS (blocking buffer) for 2 h at room temperature, cells were incubated with 1:1000 dilution of anti-nitrotyrosine antibody (Cat. A-21285, ThermoFisher Scientific) overnight at 4 °C. Detection was conducted using Alexa Fluor 488 Goat Anti-rabbit IgG (Cat. A-11008, Life Technologies). Imaging was performed using a ZEISS Axio Observer microscope. Approximately 5–10 images per condition, with ~70–100 cells per image, were quantitated for nitrotyrosine fluorescence using ImageJ software.

[4] = system: Xpa, Xpc, Mitf, Xrcc1 expression in Mel-c; test: qPCR expression of NER pathway genes, Mel-c; format: cell-based, mouse; conditions: 24 h incubation; for Gene expression of Xpa, Xpc and Mitf (NER pathway): no UV
Protocol: as §1

[5] = system: delayed (dark) CPDs (dCPDs) in Mel-a cells; test: dCPD assessment by DNA ELISA post ssUV, Mel-a; format: cell-based, mouse; conditions: for Inhibition of delayed CPDs (dCPDs): Mel-a, 50 µg/mL, 24–36 h preincubation, 0.5 to 4 h post ssUV, Figure 4C
Description: For UV exposures, we used a “SOL-UV6 ultraviolet solar simulator” from Newport irradiators. It is equipped with a Xenon arc lamp where the output is varied using the integrated variable attenuator aperture, which provides the ability to vary the output from 10% to 100% of the maximum available solar constants. The output spectrum is flat from 320 nm to 400 nm and no values are below 300 nm. This is abbreviated as “ssUV” for “solar-simulated UV” throughout the text. Various cell types seeded at ~50% confluency, were treated with the AZ and analogs at concentrations mentioned in the data figures for 24–h. Cells at ~80–90% confluency (untreated controls), were washed twice with PBS and exposed to 18 kJ/m^2 of ssUV in minimal amount of PBS (ex. 2 mL PBS in a 60 mm cell culture dish) without any dish lid in place. […] The ssUV apparatus was monitored almost daily using UV meters for any emissions below 300 nm. The dose was decided based upon the 80–90% cell survival post UV exposure. After exposure, one time point was collected immediately to assess iCPDs, whereas more dishes were incubated in cell culture medium, inside the cell culture incubator, for various time points to be collected post UV to assess dCPDs. For dCPD induction, it is important that the cell culture incubator is not opened for at least 30 min (the first time point post UV) to avoid possible interference from the CO2/O2 ratio, which will be altered upon opening the incubator doors. Cells were collected by scraping and washed once with PBS, which was followed by DNA isolation using a Quick DNA miniprep Kit (Cat. D3024, Zymo Research, Irvine, CA, USA). CPDs were assessed using our previously established DNA ELISA protocols. In brief, ELISA was performed using mouse monoclonal Anti-CPD (Cat. CAC-NM-DND-001, Clone TDM-2, CosmoBio, Inc., Carlsbad, CA, USA). […] A measure of 50 µL of 2M H2SO4 was used to stop the reaction as soon as the color developed (5–10 min incubation in substrate), and OD was measured at 490 nm using a Synergy-2 multimode microplate reader (BioTek, Winooski, VT, USA).

[6] = system: human keratinocytes (HaCaT); test: Cell survival assay (Alamar blue), keratinocytes; format: cell-based; conditions: 24 h pre-incubation, Supplementary Figure S2
[7] = system: MMP-1; design: method as in PMID 31465741; conditions: in vitro assays; cited from earlier work
[8] = system: MMP-3; design: method as in PMID 31465741; conditions: in vitro assays; cited from earlier work

For `COc1cc(CC(C(C)=O)C(C)=O)ccc1O` [AZ, 3-(4-Hydroxy-3-methoxybenzyl)-pentane-2,4-dione], the “NER pathway gene expression post UV exposure” value [1] was “elevated slightly”, the “Gene expression of Xpa, Xpc and Mitf (NER pathway)” value (from here on “Gene expression of Xpa”) [1] was “upregulated” and the “Gene expression of Xrcc1” value [1] was “remained unaffected”. The “Inhibition of MMP-12 activity” value [2] was “inhibited”, the “Amount of nitrotyrosine (NOS activity marker)” value [3] was “reduced the amount of nitrotyrosine” and the “Gene expression of Xrcc1” value [4] was “remained unaffected”. For the same molecule, the “Gene expression of Xpa” value [4] was “remained unaffected”, the “Inhibition of delayed CPDs (dCPDs)” value [5] was “inhibited dCPD formation almost completely” and the “Cytotoxicity at 1000 µg/ml” value [6] was “cytotoxic”. The “Inhibition of MMP-1 activity” value [7] was “inhibited” and the “Inhibition of MMP-3 activity” value [8] was “inhibited”.

For `COc1ccc(CC(C(C)=O)C(C)=O)cc1` [MBPD, 3-(4-Methoxy-benzyl)-pentane-2,4-dione], the “NER pathway gene expression post UV exposure” value [1] was “elevated slightly”, the “Gene expression of Xpa” value [1] was “upregulated” and the “Gene expression of Xrcc1” value [1] was “remained unaffected”. For the same molecule, the “Amount of nitrotyrosine (NOS activity marker)” value [3] was “reduced the amount of nitrotyrosine”, the “Gene expression of Xrcc1” value [4] was “remained unaffected” and the “Gene expression of Xpa” value [4] was “upregulated”. For the same molecule, the “Inhibition of delayed CPDs (dCPDs)” value [5] was “abrogated the delayed CPDs completely” and the “Inhibition of total CPDs (iCPDs + dCPDs)” value ([5]; extrapolated from 50% iCPD reduction and complete dCPD blockade, pigmented melanocytes) was ~ 80% and 70–80%.
